Experimental data taken from US20170122958A1, “Enzymes Functional Probes” (University of Dundee, priority 2013, published 2017).
“Also recorded” adds a separate entry of the source.

Tests used:
Solubility observations = conditions: observation in words
Brd2(1)*(Met165-Leu) = molecular target: T1, Brd2(1)*(Met165-Leu) (Homo sapiens, UniProt P25440, M165L); assay: DSF thermal shift; assay type: binding; conditions: mutant
T1 construct: Plasmids of the eight single BET bromodomain constructs Brd2(1), Brd2(2), Brd3(1), Brd3(2); His6 (N); made in house; host or cells: E. coli BL21(DE3)
Experimental: (§1) DSF assays were performed on a LightCycler®480 from Roche or a Mx3005P Real Time PCR machine from Stratagene. Prior to DSF assays, frozen proteins were buffer exchanged using Vivaspin®6 concentrators with a 10 kDa cutoff on a Centrifuge 5430 from Eppendorf at a speed of 6000×g to remove glycerol and to buffer the proteins in 20 mM HEPES pH 7.5 at 25° C. and 100 mM NaCl. SYPRO®Orange from Invitrogen Molecular Probes® was used as a reporter dye to monitor the denaturing process of the proteins. Samples were assayed on a 96-well plate with final protein concentrations of 2 μM for the LightCycler®480 and 6 μM for Mx3005P. Compounds were added at a final concentration of 10 μM for the LightCycler®480 and 30 μM for Mx3005P, while the tetra acetylated histone peptide was added to a final concentration of 100 μM and 300 μM respectively. […] The temperature was raised with a step of 0.6° C. per minute from 37° C. to 95° C. with the LightCycler®480 collecting 39 measurements per ° C., and 1° C. per minute from 25° C. to 95° C. with Mx3005P, collecting fluorescence readings at the end of each interval. Each sample was run in triplicates.
(§2) Collected data was analysed by IGOR Pro 6, a scientific software tool from Wave Metrics, Inc. Analysis was done following the recommendations of Niesen et al.. Fluorescence intensity was plotted as a function of temperature, generating a sigmoidal curve described by a two-state transition from folded to unfolded protein. Curves were fitted by the following sigmoidal equation: […]
(§3) A1 and A2 are the values of minimum and maximum intensities, respectively, x0 is the inflection point and dx is the rate. Fitted curves were differentiated in IGOR Pro 6 and the maximum of the first derivative was identified using the same program. These values correspond to the inflection points of the transition curves and thus to the melting temperatures of the proteins (Tm).

Brd2(2)*(Met438-Leu) = molecular target: T2, Brd2(2)*(Met438-Leu) (Homo sapiens, UniProt P25440, M438L); assay: DSF thermal shift; assay type: binding; conditions: mutant
T2 construct: Plasmids of the eight single BET bromodomain constructs Brd2(1), Brd2(2), Brd3(1), Brd3(2); His6 (N); made in house; host or cells: E. coli BL21(DE3)
Experimental: as §1, §2, §3

Brd2(2)*(Met438-Ala) [1] = molecular target: T3, Brd2(2)*(Met438-Ala) (Homo sapiens, UniProt P25440, M438A); assay: DSF thermal shift; assay type: binding; conditions: mutant
T3 construct: Plasmids of the eight single BET bromodomain constructs Brd2(1), Brd2(2), Brd3(1), Brd3(2); His6 (N); made in house; host or cells: E. coli BL21(DE3)
Experimental: as §1, §2, §3

Brd2(1)*(Met165Ala) [2] = molecular target: T4, Brd2(1)*(Met165Ala) (Homo sapiens, UniProt P25440, M165A); assay: ITC reverse titration of protein into compound; assay type: binding; design: Plasmids of the eight single BET bromodomain constructs Brd2(1), Brd2(2), Brd3(1), Brd3(2), Brd4(1), Brd4(2), Brdt(1) and Brdt(2); His6 (N); made in house; host or cells: E. coli BL21(DE3)
Experimental: (§4) ITC experiments were carried out on a ITC200 instrument from MicroCal™ Experiments were conducted at 3 different temperatures 15° C., 25° C. and 30° C., while stirring at 1000 rpm. Buffers of proteins, peptide and compounds were matched to 20 mM HEPES pH 7.5 at 25° C. and 100 mM NaCl. Frozen protein was buffer exchanged as described for the DSF experiments. Each titration comprised 1 initial injection of 0.4 μl lasting 0.8 s, followed by 19 injections of 2 μl lasting 4 s each at 2 min intervals. The initial injection was discarded during data analysis. Standard and reverse titrations were conducted depending on the binding partners.
(§5) Reverse titrations were conducted to test the binding of the known ligands and the novel chemical probes to the wild types and the mutants. Experiments were carried out either at 25° C. or 30° C. For strong binders, a concentration of 150-200 μM of the protein was injected into a solution of 15-20 μM compound. […] In cases where the compound was solubilized in dimethyl sulfoxide, DMSO concentration was adjusted to 1% both in the syringe and in the cell.
(§6) All the data was fitted to a single binding site model using the Microcal LLC ITC200 Origin software provided by the manufacturer to yield enthalpies of binding (ΔH) and binding constants (Kas). Further thermodynamic parameters were calculated from these values (changes in entropy ΔS, changes in free energy AG and dissociation constants (Kds)).

Brd2(2) [3] = molecular target: T5, Brd2(2) (Homo sapiens, UniProt P25440); assay: DSF thermal shift; assay type: binding; conditions: wild type
T5 construct: Plasmids of the eight single BET bromodomain constructs Brd2(1), Brd2(2), Brd3(1), Brd3(2); His6 (N); made in house; host or cells: E. coli BL21(DE3)

Brd2(1) [4] = molecular target: T6, Brd2(1) (Homo sapiens, UniProt P25440); assay: DSF thermal shift; assay type: binding; conditions: wild type
T6 construct: Plasmids of the eight single BET bromodomain constructs Brd2(1), Brd2(2), Brd3(1), Brd3(2); His6 (N); made in house; host or cells: E. coli BL21(DE3)

Brd2(1)*(Met165Ala) [5] = molecular target: T4, Brd2(1)*(Met165Ala); assay: DSF thermal shift; assay type: binding; design: Plasmids of the eight single BET bromodomain constructs Brd2(1), Brd2(2), Brd3(1), Brd3(2); His6 (N); made in house; host or cells: E. coli BL21(DE3); conditions: mutant
Experimental: as §1, §2, §3

Brd2(2)*(Met438-Ala) [6] = molecular target: T3, Brd2(2)*(Met438-Ala); assay: ITC reverse titration of protein into compound; assay type: binding
Experimental: as §4
Reverse titrations were conducted to test the binding of the known ligands and the novel chemical probes to the wild types and the mutants. […]. In cases where the compound was solubilized in dimethyl sulfoxide, DMSO concentration was adjusted to 1% both in the syringe and in the cell.
as §6

Brd2(2) [7] = molecular target: T5, Brd2(2); assay: ITC reverse titration of protein into compound; assay type: binding; conditions: ITC 25° C.; read-out: Kd Brd2(2)
Experimental: as §4
as §5, with “C.” for “C. For strong binders, a concentration of 150-200 μM of the protein was injected into a solution of 15-20 μM compound.”
as §6

Brd2(1) [8] = molecular target: T6, Brd2(1); assay: ITC reverse titration of protein into compound; assay type: binding; conditions: ITC 25° C.; read-out: Kd wild type Brd2(1)
Experimental: as §4
as §5, with “C.” for “C. For strong binders, a concentration of 150-200 μM of the protein was injected into a solution of 15-20 μM compound.”
as §6

[9] = test system: Brd2 methionine to alanine mutants; assay: DSF thermal shift, pooled statement; assay type: binding, human; conditions: span over both mutants
Experimental: as §1, with “Mx3005P.” for “Mx3005P. Compounds were added at a final concentration of 10 μM for the LightCycler®480 and 30 μM for Mx3005P, while the tetra acetylated histone peptide was added to a final concentration of 100 μM and 300 μM respectively.”, “Each sample was run in triplicates.” left out
as §2, with “protein.” for “protein. Curves were fitted by the following sigmoidal equation:”

Brd2 wild types = assay: DSF thermal shift, pooled statement; assay type: binding, human; conditions: span over Brd2(1) and Brd2(2)
Experimental: as §1, with “Mx3005P.” for “Mx3005P. Compounds were added at a final concentration of 10 μM for the LightCycler®480 and 30 μM for Mx3005P, while the tetra acetylated histone peptide was added to a final concentration of 100 μM and 300 μM respectively.”, “Each sample was run in triplicates.” left out
as §2, with “protein.” for “protein. Curves were fitted by the following sigmoidal equation:”

T4 sequence (P25440 74-180 M165A limits assumed): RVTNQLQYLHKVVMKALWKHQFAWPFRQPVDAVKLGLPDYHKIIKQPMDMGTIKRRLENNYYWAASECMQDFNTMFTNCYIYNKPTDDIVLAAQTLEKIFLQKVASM
T3 sequence (P25440 344-453 M438A limits assumed): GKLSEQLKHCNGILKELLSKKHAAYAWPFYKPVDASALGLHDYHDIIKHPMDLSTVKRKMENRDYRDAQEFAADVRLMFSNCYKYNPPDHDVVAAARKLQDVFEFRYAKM
T6 sequence (P25440 74-180 limits assumed): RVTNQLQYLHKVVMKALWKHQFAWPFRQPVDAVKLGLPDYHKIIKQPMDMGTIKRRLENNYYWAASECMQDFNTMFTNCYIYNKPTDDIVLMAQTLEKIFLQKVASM
T5 sequence (P25440 344-453 limits assumed): as the sequence (P25440 344-453 M438A limits assumed) above, with A95M counted along it
T1 sequence (P25440 74-180 M165L limits assumed): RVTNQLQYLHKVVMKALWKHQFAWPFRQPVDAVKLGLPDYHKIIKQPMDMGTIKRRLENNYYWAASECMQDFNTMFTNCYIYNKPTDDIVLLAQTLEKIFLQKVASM
T2 sequence (P25440 344-453 M438L limits assumed): as the sequence (P25440 344-453 M438A limits assumed) above, with A95L counted along it

Solubility (Solubility observations): good solubility
ΔTm Brd2(1)*(Met165-Leu) (Brd2(1)*(Met165-Leu)): 2.9 ± 0.2 K
ΔTm Brd2(2)*(Met165-Leu) (Brd2(2)*(Met438-Leu)): 5.2 ± 0.3 K
ΔTm Brd2(2)*(Met165-Ala) (Brd2(2)*(Met438-Ala) [1]): 6.6 ± 0.3 K
Selectivity for mutant relative to wild type (Brd2(1)*(Met165Ala) [2]; Brd2(1)*(Met165Ala) vs Brd2(1), ITC Kd): six-fold selectivity
Kd (Brd2(1)*(Met165Ala) [2]; ITC 25° C.): ~500 nM
ΔTm Brd2(2) (Brd2(2) [3]): 2.1 ± 0.3 K
ΔTm Brd2(1) (Brd2(1) [4]): 1.1 ± 0.2 K
ΔTm Brd2(1)*(Met165-Ala) (Brd2(1)*(Met165Ala) [5]): 4.6 ± 0.2 K
Selectivity for mutant relative to wild type (Brd2(2)*(Met438-Ala) [6]; Brd2(2) methionine to alanine mutant vs Brd2(2), ITC Kd): six fold selectivity
Kd (Brd2(2)*(Met438-Ala) [6]; ITC 25° C., read-out: Kd methionine to alanine mutation of Brd2(2)): ~260 nM
Kd (Brd2(2) [7]): ~1600 nM
Kd (Brd2(1) [8]): ~3200 nM
Structure (SMILES): COc1ccc(OC)c(S(=O)(=O)Nc2ccc3c(c2)CN(C)C(=O)N3)c1 [Compound 51, 2,5-dimethoxy-N-(3-methyl-2-oxo-1,2,3,4-tetrahydroquinazolin-6-yl)benzenesulfonamide]
Fold higher affinity for mutant than wild type (Brd2(1)*(Met165Ala) [2]; Brd2(1)* methionine to alanine mutant vs wild type Brd2(2), ITC Kd): three-fold higher affinity; also recorded: twelve fold higher affinity
Fold higher affinity for mutant than wild type (Brd2(2)*(Met438-Ala) [6]; Brd2(2)* methionine to alanine mutant vs wild type Brd2(1), ITC Kd): twelve fold higher affinity; also recorded: three-fold higher affinity
ΔTm methionine to alanine mutants of Brd2 [9]: 4.5-6.6 °C
ΔTm wild types of Brd2 (Brd2 wild types): 1-2 °C
